Results from patent publication US20020137929A1, “1 - (3-heterocyclylphenyl) isothiourea, -isourea, -guanidine and -amidine herbicidal agents” (Intellectual Property Department, BASF Aktiengesellschaft, priority 1998, published 2002).

Key:
CASOB (Sicklepod) = assay: Preemergence herbicidal evaluation; format: in vivo, Cassia obtusifolia; settings: rated 4-5 weeks after treatment
In short: (§1)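 Seeds were planted in potting soil in cups, then sprayed preemergence with the test compound in aqueous acetone at about 0.0156 to 0.500 kg per hectare. Cups were kept under greenhouse conditions and visually rated 4–5 weeks after treatment on a 0–9 scale against an untreated control.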

ZEAMX (Corn, Field) = assay: Postemergence herbicidal evaluation; format: in vivo, Zea mays; settings: postemergence
In short: (§2)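 ~2-wk seedlings; postemergence spray, 40 psi; vehicle 1:1 acetone:water + 0.5% Tween 20; rate ≈0.0156–0.500 kg/ha; greenhouse hold; scored 4–5 wk after treatment, 0–9 scale vs control; repeat tests averaged.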

[1] = tested on: GLXMAW (Soybean, Williams); assay: Postemergence herbicidal evaluation; format: in vivo, Glycine max, (L.) Merr. cv Williams; settings: postemergence
In short: as §2

SETVI (Foxtail, Green) = assay: Postemergence herbicidal evaluation; format: in vivo, Setaria viridis; settings: postemergence
In short: as §2

[2] = tested on: IPOHE (Morningglory, Ivyleaf); assay: Postemergence herbicidal evaluation; format: in vivo, Ipomoea hederacea; settings: postemergence
In short: as §2

ABUTH (Velvetleaf) [3] = assay: Preemergence herbicidal evaluation; format: in vivo, Abutilon theophrasti; settings: rated 4-5 weeks after treatment
In short: as §1

ECHCG (Barnyardgrass) = assay: Preemergence herbicidal evaluation; format: in vivo, Echinochloa crus-galli; settings: rated 4-5 weeks after treatment
In short: as §1

CYPSE (Flatsedge) = assay: Preemergence weed control under flooded paddy conditions; format: in vivo, Cyperus serotinus; settings: rated 3-4 weeks after treatment
In short: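 Silt loam, seeds in top 0.5 cm; flood held 1.5-3 cm; test cpd as acetone/water 50/50 into flood water, ~0.0313-0.500 kg/ha a.i.; greenhouse 3-4 wk; visual 0-9 score vs control.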

[4] = tested on: IPOHE (Morningglory, Ivyleaf); assay: Preemergence herbicidal evaluation; format: in vivo, Ipomoea hederacea; settings: rated 4-5 weeks after treatment
In short: as §1

ABUTH (Velvetleaf) [5] = assay: Postemergence herbicidal evaluation; format: in vivo, Abutilon theophrasti; settings: postemergence
In short: as §2

[6] = tested on: ECHORC (Watergrass (Calif.)); assay: Preemergence weed control under flooded paddy conditions; format: in vivo, Echinochloa oryzoides; settings: rated 3-4 weeks after treatment
In short: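 Seeds or propagules sown in top 0.5 cm of silt loam soil, flooded 1.5 to 3 cm above surface throughout. Compound in 50/50 v/v aqueous/acetone pipetted into flood water at about 0.0313 to 0.500 kg/ha. Visual 0-9 rating versus control after three to four weeks in greenhouse.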

AMBEL (Ragweed, Common) = assay: Preemergence herbicidal evaluation; format: in vivo, Ambrosia artemisifolia; settings: rated 4-5 weeks after treatment
In short: as §1

Cn1c(C(F)(F)F)cc(=O)n(-c2cc(N=C3SCC(=O)N3CC(=O)OCC3CCCCC3)c(Cl)cc2F)c1=O [Compound 123, Cyclohexylmethyl 2-{{2-chloro-5-[3,6-dihydro-3-methyl-2,6-dioxo-4-(trifluoromethyl)-1(2H)-pyrimidinyl]-4-fluorophenyl}imino}-4-oxo-3-thiazolidineacetate]
Preemergence herbicidal rating CASOB (CASOB (Sicklepod); rate 0.0156 kg/ha): 0.0
Preemergence herbicidal rating CASOB (CASOB (Sicklepod); rate 0.0313 kg/ha): 0.0
Preemergence herbicidal rating CASOB (CASOB (Sicklepod); rate 0.0625 kg/ha): 0.0
Preemergence herbicidal rating CASOB (CASOB (Sicklepod); rate 0.1250 kg/ha): 0.0
Preemergence herbicidal rating CASOB (CASOB (Sicklepod); rate 0.5000 kg/ha): 3.0
Herbicidal rating ZEAMX (ZEAMX (Corn, Field); rate 0.0156 kg/ha): 6.5
Herbicidal rating ZEAMX (ZEAMX (Corn, Field); rate 0.0313 kg/ha): 7.0
Herbicidal rating ZEAMX (ZEAMX (Corn, Field); rate 0.0625 kg/ha): 7.5
Herbicidal rating ZEAMX (ZEAMX (Corn, Field); rate 0.1250 kg/ha): 7.5
Herbicidal rating GLXMAW ([1]; rate 0.0156 kg/ha): 6.5
Herbicidal rating GLXMAW ([1]; rate 0.0313 kg/ha): 6.5
Herbicidal rating GLXMAW ([1]; rate 0.0625 kg/ha): 8.0
Herbicidal rating GLXMAW ([1]; rate 0.1250 kg/ha): 9.0
Herbicidal rating SETVI (SETVI (Foxtail, Green); rate 0.0156 kg/ha): 9.0
Herbicidal rating SETVI (SETVI (Foxtail, Green); rate 0.0313 kg/ha): 9.0
Herbicidal rating SETVI (SETVI (Foxtail, Green); rate 0.0625 kg/ha): 9.0
Herbicidal rating SETVI (SETVI (Foxtail, Green); rate 0.1250 kg/ha): 9.0
Herbicidal rating IPOHE ([2]; rate 0.0156 kg/ha): 9.0
Herbicidal rating IPOHE ([2]; rate 0.0313 kg/ha): 9.0
Herbicidal rating IPOHE ([2]; rate 0.0625 kg/ha): 9.0
Herbicidal rating IPOHE ([2]; rate 0.1250 kg/ha): 9.0
Preemergence herbicidal rating ABUTH (ABUTH (Velvetleaf) [3]; rate 0.0156 kg/ha): 9.0
Preemergence herbicidal rating ABUTH (ABUTH (Velvetleaf) [3]; rate 0.0313 kg/ha): 9.0
Preemergence herbicidal rating ABUTH (ABUTH (Velvetleaf) [3]; rate 0.0625 kg/ha): 9.0
Preemergence herbicidal rating ABUTH (ABUTH (Velvetleaf) [3]; rate 0.1250 kg/ha): 9.0
Preemergence herbicidal rating ABUTH (ABUTH (Velvetleaf) [3]; rate 0.2500 kg/ha): 9.0
Preemergence herbicidal rating ABUTH (ABUTH (Velvetleaf) [3]; rate 0.5000 kg/ha): 9.0
Preemergence herbicidal rating ECHCG (ECHCG (Barnyardgrass); rate 0.0156 kg/ha): 0.0
Preemergence herbicidal rating ECHCG (ECHCG (Barnyardgrass); rate 0.0313 kg/ha): 0.0
Preemergence herbicidal rating ECHCG (ECHCG (Barnyardgrass); rate 0.0625 kg/ha): 0.0
Preemergence herbicidal rating ECHCG (ECHCG (Barnyardgrass); rate 0.1250 kg/ha): 1.0
Preemergence herbicidal rating ECHCG (ECHCG (Barnyardgrass); rate 0.2500 kg/ha): 4.0
Preemergence herbicidal rating ECHCG (ECHCG (Barnyardgrass); rate 0.5000 kg/ha): 7.0
herbicidal effect rating, CYPSE (CYPSE (Flatsedge); 0.0313 kg/ha): 5.0
herbicidal effect rating, CYPSE (CYPSE (Flatsedge); 0.0625 kg/ha): 9.0
herbicidal effect rating, CYPSE (CYPSE (Flatsedge); 0.1250 kg/ha): 9.0
herbicidal effect rating, CYPSE (CYPSE (Flatsedge); 0.2500 kg/ha): 9.0
Preemergence herbicidal rating IPOHE ([4]; rate 0.0156 kg/ha): 0.0
Preemergence herbicidal rating IPOHE ([4]; rate 0.0313 kg/ha): 0.0
Preemergence herbicidal rating IPOHE ([4]; rate 0.0625 kg/ha): 0.0
Preemergence herbicidal rating IPOHE ([4]; rate 0.1250 kg/ha): 7.0
Preemergence herbicidal rating IPOHE ([4]; rate 0.2500 kg/ha): 9.0
Preemergence herbicidal rating IPOHE ([4]; rate 0.5000 kg/ha): 9.0
Herbicidal rating ABUTH (ABUTH (Velvetleaf) [5]; rate 0.0156 kg/ha): 9.0
Herbicidal rating ABUTH (ABUTH (Velvetleaf) [5]; rate 0.0313 kg/ha): 9.0
Herbicidal rating ABUTH (ABUTH (Velvetleaf) [5]; rate 0.0625 kg/ha): 9.0
Herbicidal rating ABUTH (ABUTH (Velvetleaf) [5]; rate 0.1250 kg/ha): 9.0
herbicidal effect rating, ECHORC ([6]; 0.0313 kg/ha): 7.0
herbicidal effect rating, ECHORC ([6]; 0.0625 kg/ha): 9.0
herbicidal effect rating, ECHORC ([6]; 0.1250 kg/ha): 9.0
herbicidal effect rating, ECHORC ([6]; 0.2500 kg/ha): 9.0
Preemergence herbicidal rating AMBEL (AMBEL (Ragweed, Common); rate 0.0156 kg/ha): 2.0
Preemergence herbicidal rating AMBEL (AMBEL (Ragweed, Common); rate 0.0313 kg/ha): 1.0
Preemergence herbicidal rating AMBEL (AMBEL (Ragweed, Common); rate 0.0625 kg/ha): 3.0
Preemergence herbicidal rating AMBEL (AMBEL (Ragweed, Common); rate 0.1250 kg/ha): 4.0
Preemergence herbicidal rating AMBEL (AMBEL (Ragweed, Common); rate 0.2500 kg/ha): 9.0
Preemergence herbicidal rating AMBEL (AMBEL (Ragweed, Common); rate 0.5000 kg/ha): 9.0

CCOC(=O)CN1C(=O)C(C(=O)OC)SC1=Nc1cc(-n2c(=O)cc(C(F)(F)F)n(C)c2=O)c(F)cc1Cl (stereo not drawn) [Compound 128, 5-Carboxy-2-{{2-chloro-5-[3,6-dihydro-3-methyl-2,6-dioxo-4-(trifluoromethyl)-1(2H)-pyrimidinyl]-4-fluorophenyl}imino}-4-oxo-3-thiazolidineacetic acid, 3-ethyl methyl ester]
Preemergence herbicidal rating CASOB (CASOB (Sicklepod); rate 0.0156 kg/ha): 0.0
Preemergence herbicidal rating CASOB (CASOB (Sicklepod); rate 0.0313 kg/ha): 1.0
Preemergence herbicidal rating CASOB (CASOB (Sicklepod); rate 0.0625 kg/ha): 1.0
Preemergence herbicidal rating CASOB (CASOB (Sicklepod); rate 0.2500 kg/ha): 0.0
Herbicidal rating ZEAMX (ZEAMX (Corn, Field); rate 0.0156 kg/ha): 3.5
Herbicidal rating ZEAMX (ZEAMX (Corn, Field); rate 0.0313 kg/ha): 4.0
Herbicidal rating ZEAMX (ZEAMX (Corn, Field); rate 0.0625 kg/ha): 6.0
Herbicidal rating GLXMAW ([1]; rate 0.0156 kg/ha): 4.5
Herbicidal rating GLXMAW ([1]; rate 0.0313 kg/ha): 4.5
Herbicidal rating GLXMAW ([1]; rate 0.0625 kg/ha): 6.0
Herbicidal rating SETVI (SETVI (Foxtail, Green); rate 0.0156 kg/ha): 1.0
Herbicidal rating SETVI (SETVI (Foxtail, Green); rate 0.0313 kg/ha): 1.0
Herbicidal rating SETVI (SETVI (Foxtail, Green); rate 0.0625 kg/ha): 4.0
Herbicidal rating IPOHE ([2]; rate 0.0156 kg/ha): 9.0
Herbicidal rating IPOHE ([2]; rate 0.0313 kg/ha): 9.0
Herbicidal rating IPOHE ([2]; rate 0.0625 kg/ha): 9.0
Preemergence herbicidal rating ABUTH (ABUTH (Velvetleaf) [3]; rate 0.0156 kg/ha): 0.0
Preemergence herbicidal rating ABUTH (ABUTH (Velvetleaf) [3]; rate 0.0313 kg/ha): 0.0
Preemergence herbicidal rating ABUTH (ABUTH (Velvetleaf) [3]; rate 0.0625 kg/ha): 1.0
Preemergence herbicidal rating ABUTH (ABUTH (Velvetleaf) [3]; rate 0.1250 kg/ha): 3.0
Preemergence herbicidal rating ABUTH (ABUTH (Velvetleaf) [3]; rate 0.2500 kg/ha): 9.0
Preemergence herbicidal rating ECHCG (ECHCG (Barnyardgrass); rate 0.0156 kg/ha): 0.0
Preemergence herbicidal rating ECHCG (ECHCG (Barnyardgrass); rate 0.0313 kg/ha): 0.0
Preemergence herbicidal rating ECHCG (ECHCG (Barnyardgrass); rate 0.0625 kg/ha): 0.0
Preemergence herbicidal rating ECHCG (ECHCG (Barnyardgrass); rate 0.1250 kg/ha): 0.0
Preemergence herbicidal rating ECHCG (ECHCG (Barnyardgrass); rate 0.2500 kg/ha): 2.0
herbicidal effect rating, CYPSE (CYPSE (Flatsedge); 0.0625 kg/ha): 0.0
herbicidal effect rating, CYPSE (CYPSE (Flatsedge); 0.2500 kg/ha): 3.0
Preemergence herbicidal rating IPOHE ([4]; rate 0.0156 kg/ha): 0.0
Preemergence herbicidal rating IPOHE ([4]; rate 0.0313 kg/ha): 0.0
Preemergence herbicidal rating IPOHE ([4]; rate 0.0625 kg/ha): 4.0
Preemergence herbicidal rating IPOHE ([4]; rate 0.1250 kg/ha): 9.0
Preemergence herbicidal rating IPOHE ([4]; rate 0.2500 kg/ha): 7.0
Herbicidal rating ABUTH (ABUTH (Velvetleaf) [5]; rate 0.0156 kg/ha): 6.0
Herbicidal rating ABUTH (ABUTH (Velvetleaf) [5]; rate 0.0313 kg/ha): 9.0
Herbicidal rating ABUTH (ABUTH (Velvetleaf) [5]; rate 0.0625 kg/ha): 9.0
herbicidal effect rating, ECHORC ([6]; 0.0313 kg/ha): 5.0
herbicidal effect rating, ECHORC ([6]; 0.0625 kg/ha): 7.0
herbicidal effect rating, ECHORC ([6]; 0.1250 kg/ha): 7.0
herbicidal effect rating, ECHORC ([6]; 0.2500 kg/ha): 9.0
Preemergence herbicidal rating AMBEL (AMBEL (Ragweed, Common); rate 0.0156 kg/ha): 0.0
Preemergence herbicidal rating AMBEL (AMBEL (Ragweed, Common); rate 0.0313 kg/ha): 0.0
Preemergence herbicidal rating AMBEL (AMBEL (Ragweed, Common); rate 0.0625 kg/ha): 0.0
Preemergence herbicidal rating AMBEL (AMBEL (Ragweed, Common); rate 0.1250 kg/ha): 2.0
Preemergence herbicidal rating AMBEL (AMBEL (Ragweed, Common); rate 0.2500 kg/ha): 3.0
